Assay results taken from PubChem BioAssay (NCI).
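Five concentrations, 48 hours, 96-well plates. Abbreviation: GI50, concentration required for 50% inhibition of growth. The concentration for full growth arrest is given as TGI.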

How the values were obtained:
Test in all cases: NCI-60 cell line screen, 48 h
MALME-3M melanoma = system: MALME-3M melanoma
MDA-MB-231 breast = system: MDA-MB-231 breast
A498 renal = system: A498 renal
SK-OV-3 ovarian = system: SK-OV-3 ovarian
HOP-62 NSCLC = system: HOP-62 NSCLC
K-562 leukemia = system: K-562 leukemia
UACC-257 melanoma = system: UACC-257 melanoma
HCT-15 colon = system: HCT-15 colon
U251 CNS = system: U251 CNS
DU-145 prostate = system: DU-145 prostate

| Compound | GI50 (MALME-3M melanoma) [nM] | TGI (MALME-3M melanoma) [µM] | GI50 (MDA-MB-231 breast) [µM] | TGI (MDA-MB-231 breast) [µM] | GI50 (A498 renal) [µM] | TGI (A498 renal) [µM] | GI50 (SK-OV-3 ovarian) [µM] | TGI (SK-OV-3 ovarian) [µM] | GI50 (HOP-62 NSCLC) [µM] | TGI (HOP-62 NSCLC) [µM] | GI50 (K-562 leukemia) [µM] | TGI (K-562 leukemia) [µM] | GI50 (UACC-257 melanoma) [µM] | TGI (UACC-257 melanoma) [µM] | GI50 (HCT-15 colon) [µM] | TGI (HCT-15 colon) [µM] | GI50 (U251 CNS) [µM] | TGI (U251 CNS) [µM] | GI50 (DU-145 prostate) [µM] | TGI (DU-145 prostate) [µM] |
| --- | --- | --- | --- | --- | --- | --- | --- | --- | --- | --- | --- | --- | --- | --- | --- | --- | --- | --- | --- | --- |
| CC1=C(SCCC(=O)OC(C[Se]C2=C(C)C(=O)c3ccccc3C2=O)C(=O)NCCCCCC(=O)OCc2ccccc2)C(=O)c2ccccc2C1=O (configuration not stated) | 2070 | 6.96 | 6.81 | 22 | 11.9 | > 100 | 7.1 | 19.7 | 3.82 | 14.4 | 3.04 | > 100 | 3.46 | 10.1 | 6.53 | 21.3 | 4.09 | 13.6 |  |  |
| CN(C)CCNC(=O)c1cccc2cc3c(Cl)cccc3nc12 |  | 2.1 |  |  |  | 3.21 |  | 10.8 |  | 2.55 |  | 4.04 |  | 3.99 |  | 6.37 |  | 6.3 |  |  |
| CC(=O)Nc1c(Nc2ccccc2)[nH]c(C)nc1=S |  | > 100 |  |  |  |  |  | > 100 |  | > 100 |  | > 100 |  | > 100 |  | > 100 |  |  |  |  |
| NCCCC[C@@H]1NC(=O)[C@H](CC(=O)O)NC(=O)CNC(=O)[C@H](CCCN=C(N)N)NC(=O)[C@@H](N)CSSC[C@@H](C(=O)O)NC(=O)[C@H](CC(=O)O)NC(=O)[C@@H]2CCCN2C(=O)CNC1=O | > 100000 | > 100 |  |  | > 100 | > 100 | > 100 | > 100 | > 100 | > 100 | > 100 | > 100 | > 100 | > 100 | > 100 | > 100 | > 100 | > 100 | > 100 | > 100 |
| CCOC(=O)Oc1cc2c(c(OC)c1OC)-c1ccc(OC)c(=O)cc1C(NC(C)=O)CC2 (configuration not stated) |  | > 100 |  | > 90.2 |  | 3.38 |  | 98.1 |  | > 93.1 |  | > 81.3 |  | > 100 |  | > 100 |  | 8.56 |  |  |
| O=C(O)[C@H](NS(=O)(=O)c1ccc(F)cc1)c1ccccc1 |  | > 100 |  |  |  |  |  | > 100 |  | > 100 |  | > 100 |  | > 100 |  | > 100 |  | > 100 |  |  |
| COc1ccc2c3c([nH]c2c1[N+](=O)[O-])C(C)N(Cc1ccccc1)CC3 (configuration not stated) |  |  |  |  |  | 7.71 |  |  |  | 7.12 |  | > 100 |  | 14.5 |  | > 100 |  | 8.73 |  |  |
| N#C/C(=C/c1ccc2c(c1)OCO2)C(=O)c1ccccc1 |  | > 100 |  |  |  | > 100 |  | > 100 |  | > 100 |  | > 100 |  | > 100 |  | > 100 |  | > 100 |  |  |
| O=S(=O)(NNc1ccccc1)c1ccccc1 |  |  |  | 17.5 |  | > 100 |  | > 100 |  | 32.7 |  | 39.5 |  | > 100 |  | > 100 |  | 33.9 |  | 34.3 |
| N/C(=N\N=C\c1ccc(C(F)(F)F)cc1)NO |  | > 100 |  |  |  | > 100 |  | > 100 |  | 55 |  | > 100 |  | > 100 |  |  |  | 87.3 |  |  |
| Cc1cccc(C)c1NC(=O)C1=NC(=S)NC(c2ccccc2)C1c1nc2ccccc2s1 (configuration not stated) |  | > 100 |  |  |  | > 100 |  | > 100 |  |  |  | > 100 |  | > 100 |  |  |  | > 100 |  |  |
